These results are taken from patent publication US9346809B2 (LEO PHARMA A/S, priority 2009, dated 2016).

Common to all, as to format: biochemical
Assay [1] concerns the target T1, TYK2 (aa 871-1187, catalytic domain, GST-tag) (Homo sapiens, UniProt P29597).
T1 construct: JAK1 (aa 850-1154) and TYK2 (aa 871-1187) are expressed with an N-terminally fused GST-tag; GST (N); purchased Carna Biosciences, Inc; host or cells: baculovirus expression system
T1 sequence (P29597 871-1187): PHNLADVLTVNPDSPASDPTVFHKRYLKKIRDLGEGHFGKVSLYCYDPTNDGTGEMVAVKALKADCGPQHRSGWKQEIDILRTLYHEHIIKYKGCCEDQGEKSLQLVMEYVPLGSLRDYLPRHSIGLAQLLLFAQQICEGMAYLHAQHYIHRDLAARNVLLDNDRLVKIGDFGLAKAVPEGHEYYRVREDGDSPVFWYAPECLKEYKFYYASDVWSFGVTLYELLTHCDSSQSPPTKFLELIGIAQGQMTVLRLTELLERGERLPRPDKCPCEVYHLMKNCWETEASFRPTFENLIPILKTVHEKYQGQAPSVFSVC
Briefly: JAK kinase assay (HTRF, phosphorylation of TK substrate-biotin), TYK2. As to conditions: ATP at Km (13 μM). Put shortly: (§1)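 Catalytic-domain kinases phosphorylated 1 μM biotin-TK substrate at ATP Km (JAK1 7 μM, JAK2 4 μM, JAK3 2 μM, TYK2 13 μM) in Hepes pH 7.0 with DTT and MgCl2, for 20-30 min at RT; JAK1 and TYK2 also had 50 nM SEB. Detection was by HTRF (streptavidin-XL665/Cryptate antibody) overnight, giving EC50.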
A general note: TR-FRET usually uses a lanthanide donor and a delayed reading to cut background.

In assay [2] the target is T2, JAK3 (catalytic domain, His-tag) (Homo sapiens, UniProt P52333).
T2 construct: All four purified enzymes contain only the catalytic domain; His (N); purchased Carna Biosciences, Inc; host or cells: baculovirus expression system
Briefly: JAK kinase assay (HTRF, phosphorylation of TK substrate-biotin), JAK3. Particulars: ATP at Km (2 μM). Put shortly: as §1

Assay [3] deals with T3, JAK2 (catalytic domain, His-tag) (Homo sapiens, UniProt O60674).
T3 construct: All four purified enzymes contain only the catalytic domain; His (N); purchased Carna Biosciences, Inc; host or cells: baculovirus expression system
Kind of assay: JAK kinase assay (HTRF, phosphorylation of TK substrate-biotin), JAK2. As to conditions: ATP at Km (4 μM). Put shortly:
as §1

The target in assay [4] is T4, JAK1 (aa 850-1154, catalytic domain, GST-tag) (Homo sapiens, UniProt P23458).
T4 construct: JAK1 (aa 850-1154) and TYK2 (aa 871-1187) are expressed with an N-terminally fused GST-tag; GST (N); purchased Carna Biosciences, Inc; host or cells: baculovirus expression system
Kind of assay: JAK kinase assay (HTRF, phosphorylation of TK substrate-biotin), JAK1. Particulars: ATP at Km (7 μM). Put shortly: as §1

The mark [5] stands for this setting: HTRF assay, read-out: TYK2 kinase inhibitory activity (EC50 indicator).
Setting [6] is: HTRF assay, read-out: JAK3 kinase inhibitory activity (EC50 indicator).
Setting [7] is: HTRF assay, read-out: JAK2 kinase inhibitory activity (EC50 indicator).
[8] abbreviates: HTRF assay, read-out: JAK1 kinase inhibitory activity (EC50 indicator).
[9] abbreviates: read-out: TYK2 kinase inhibitory activity (EC50 indicator).
Where [10] appears, read: read-out: JAK3 kinase inhibitory activity (EC50 indicator).
Setting [11] is: read-out: JAK2 kinase inhibitory activity (EC50 indicator).
Where [12] appears, read: read-out: JAK1 kinase inhibitory activity (EC50 indicator).

Where two headings read alike, the source gives them in different places.

T2 sequence (P52333 822-1111 limits assumed): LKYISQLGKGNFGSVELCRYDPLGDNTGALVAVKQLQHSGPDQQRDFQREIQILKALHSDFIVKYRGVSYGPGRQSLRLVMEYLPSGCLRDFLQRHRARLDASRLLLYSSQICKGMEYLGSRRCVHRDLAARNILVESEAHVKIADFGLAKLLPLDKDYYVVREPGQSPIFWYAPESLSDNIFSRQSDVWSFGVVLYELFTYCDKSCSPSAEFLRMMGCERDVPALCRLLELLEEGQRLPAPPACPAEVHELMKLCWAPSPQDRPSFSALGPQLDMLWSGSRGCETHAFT
T4 sequence (P23458 850-1154): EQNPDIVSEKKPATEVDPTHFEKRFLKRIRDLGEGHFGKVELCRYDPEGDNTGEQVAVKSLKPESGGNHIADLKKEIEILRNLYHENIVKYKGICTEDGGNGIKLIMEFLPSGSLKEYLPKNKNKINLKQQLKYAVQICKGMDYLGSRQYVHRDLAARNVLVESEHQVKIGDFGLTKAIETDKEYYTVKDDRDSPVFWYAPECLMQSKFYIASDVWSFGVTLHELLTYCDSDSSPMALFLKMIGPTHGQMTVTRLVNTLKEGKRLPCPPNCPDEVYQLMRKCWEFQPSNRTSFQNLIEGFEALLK
T3 sequence (O60674 849-1124 limits assumed): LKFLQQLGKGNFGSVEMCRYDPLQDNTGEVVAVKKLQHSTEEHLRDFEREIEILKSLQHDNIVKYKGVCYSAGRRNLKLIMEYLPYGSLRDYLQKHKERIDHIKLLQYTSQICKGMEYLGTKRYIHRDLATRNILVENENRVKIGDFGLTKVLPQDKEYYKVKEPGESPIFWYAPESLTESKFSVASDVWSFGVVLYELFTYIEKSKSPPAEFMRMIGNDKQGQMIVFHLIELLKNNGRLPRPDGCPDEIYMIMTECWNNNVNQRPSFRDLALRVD

Turning to `O=C(c1cc2ccc(F)cc2[nH]1)N1CCN(c2ncnc3[nH]ccc23)CC12CC2` [Example 363, (6-Fluoro-1H-indol-2-yl)-[7-(7H-pyrrolo[2,3-d]pyrimidin-4-yl)-4,7-diaza-spiro[2.5]oct-4-yl]-methanone], the EC50 – broadly, the concentration needed to bring the measured effect to its halfway point – in assay [1] (setting [5]) is 100 to 500 nM; in assay [2] (setting [6]) it was less than 100 nM; in assay [3] (setting [7]) it was less than 100 nM; in assay [4] (setting [8]), less than 100 nM.
As to `N#CCOc1cccc(C(=O)N2[C@@H]3CC[C@@H]2CN(c2ncnc4[nH]ccc24)C3)c1` [Example 343, {3-[3-(7H-Pyrrolo[2,3-d]pyrimidin-4-yl)-3,8-diaza-bicyclo[3.2.1]octane-8-carbonyl]-phenoxy}-acetonitrile], the EC50 was greater than 500 nM in assay [1] (setting [5]), 100 to 500 nM in assay [2] (setting [6]), less than 100 nM in assay [3] (setting [7]) and less than 100 nM in assay [4] (setting [8]).
As for `O=C(COc1ccccc1)N1CCN(c2ncnc3[nH]ccc23)CC12CC2` [Example 442, 2-Phenoxy-1-[7-(7H-pyrrolo[2,3-d]pyrimidin-4-yl)-4,7-diaza-spiro[2.5]oct-4-yl]-ethanone], the EC50 in assay [1] (HTRF assay, read-out: TYK2 kinase inhibitory activity (EC50)) is 100 to 500 nM; in assay [2] (HTRF assay, read-out: JAK3 kinase inhibitory activity (EC50)), less than 100 nM; in assay [3] (HTRF assay, read-out: JAK2 kinase inhibitory activity (EC50)), less than 100 nM; in assay [4] (HTRF assay, read-out: JAK1 kinase inhibitory activity (EC50)), less than 100 nM.
As to `O=C(C(=O)N1CCN(c2ncnc3[nH]ccc23)CC12CC2)c1cccs1` [Example 205, 1-[7-(7H-Pyrrolo[2,3-d]pyrimidin-4-yl)-4,7-diaza-spiro[2.5]oct-4-yl]-2-thiophen-2-yl-ethane-1,2-d lone], the EC50 was 100 to 500 nM in assay [1] (setting [9]), less than 100 nM in assay [2] (setting [10]), less than 100 nM in assay [3] (setting [11]) and less than 100 nM in assay [4] (setting [12]).
For `CC(=O)N1CCCC1C(=O)N1CCN(c2ncnc3[nH]ccc23)CC12CC2` (centres unmarked) [Example 50, 1-{2-[7-(7H-Pyrrolo[2,3-d]pyrimidin-4-yl)-4,7-diazaspiro[2.5]octane-4-carbonyl]pyrrolidin-1-yl}ethanone], the EC50 in assay [1] (setting [9]), in assay [2] (setting [10]), in assay [3] (setting [11]) and in assay [4] (setting [12]) was greater than 500 nM each time.
For the molecule `Cc1nc2ccccc2nc1C(=O)N1CCN(c2ncnc3[nH]ccc23)CC12CC2` [Example 419, (3-Methyl-quinoxalin-2-yl)-[7-(7H-pyrrolo[2,3-d]pyrimidin-4-yl)-4,7-diaza-spiro[2.5]oct-4-yl]-methanone], the EC50 in assay [1] (setting [5]), in assay [2] (setting [6]), in assay [3] (setting [7]) and in assay [4] (setting [8]) was less than 100 nM throughout.
On to `O=C(c1cc2ccccc2s1)N1CCN(c2ncnc3[nH]ccc23)CC12CC2` [Example 26, Benzo[b]thiophen-2-yl-[7-(7H-pyrrolo[2,3-d]pyrimidin-4-yl)-4,7-diazaspiro[2.5]oct-4-yl]methanone], for which the EC50 in assay [1] (setting [9]) was 100 to 500 nM; in assay [2] (setting [10]), 100 to 500 nM; in assay [3] (setting [11]), less than 100 nM; in assay [4] (setting [12]) it was less than 100 nM.
As for `CC1CN(C(=O)C2(C#N)CC2)C2(CC2)CN1c1ncnc2[nH]ccc12` (centres unmarked) [Example 149, 1-[6-Methyl-7-(7H-pyrrolo[2,3-d]pyrimidin-4-yl)-4,7-diaza-spiro[2.5]octane-4-carbonyl]-cyclopropanecarbonitrile], the EC50 was 100 to 500 nM in assay [1] (setting [9]), 100 to 500 nM in assay [2] (setting [10]), less than 100 nM in assay [3] (setting [11]) and less than 100 nM in assay [4] (setting [12]).
As to `O=C(c1ccccc1)N1CCN(c2ccnc3[nH]ccc23)CC12CC2` [Example 221, Phenyl-[7-(1H-pyrrolo[2,3-b]pyridin-4-yl)-4,7-diaza-spiro[2.5]oct-4-yl]-methanone], the EC50 in assay [1] (setting [5]) was greater than 500 nM; in assay [2] (setting [6]), 100 to 500 nM; in assay [3] (setting [7]), less than 100 nM; in assay [4] (setting [8]), less than 100 nM.
As to `COCCS(=O)(=O)c1ccc(C(=O)N2CCN(c3ncnc4[nH]ccc34)CC23CC3)cc1` [Example 433, [4-(2-Methoxy-ethanesulfonyl)-phenyl]-[7-(7H-pyrrolo[2,3-d]pyrimidin-4-yl)-4,7-diaza-spiro[2.5]oct-4-yl]-methanone], the EC50 is 100 to 500 nM in assay [1] (setting [5]), 100 to 500 nM in assay [2] (setting [6]), less than 100 nM in assay [3] (setting [7]) and less than 100 nM in assay [4] (setting [8]).
With `COc1cnc2[nH]ccc2c1N1CCN(C(=O)c2cnccn2)C2(CC2)C1` [Example 285, [7-(5-Methoxy-1H-pyrrolo[2,3-b]pyridin-4-yl)-4,7-diaza-spiro[2.5]oct-4-yl]-pyrazin-2-yl-methanone], the EC50 in assay [1] (setting [5]) is greater than 500 nM; in assay [2] (setting [6]), 100 to 500 nM; in assay [3] (setting [7]), 100 to 500 nM; in assay [4] (setting [8]), greater than 500 nM.
On to `COc1cnc2[nH]ccc2c1N1CCN(C(=O)c2cc3ccccc3s2)C2(CC2)C1` [Example 284, Benzo[b]thiophen-2-yl-[7-(5-methoxy-1H-pyrrolo[2,3-b]pyridin-4-yl)-4,7-diaza-spiro[2.5]oct-4-yl]-methanone], for which the EC50 in assay [1] (setting [5]), in assay [2] (setting [6]), in assay [3] (setting [7]) and in assay [4] (setting [8]) was greater than 500 nM each time.
Regarding `O=C(c1ccc(S(=O)(=O)NCc2ccco2)cc1)N1CCN(c2ncnc3[nH]ccc23)CC12CC2` [Example 426, N-Furan-2-ylmethyl-4-[7-(7H-pyrrolo[2,3-d]pyrimidin-4-yl)-4,7-diaza-spiro[2.5]octane-4-carbonyl]-benzenesulfonamide], the EC50 is 100 to 500 nM in assay [1] (setting [5]), less than 100 nM in assay [2] (setting [6]), less than 100 nM in assay [3] (setting [7]) and less than 100 nM in assay [4] (setting [8]).
Take `N#Cc1cc(CC(=O)N2CCN(c3ncnc4[nH]ccc34)CC23CC3)ccc1F` [Example 66, 2-Fluoro-5-{2-oxo-2-[7-(7H-pyrrolo[2,3-d]pyrimidin-4-yl)-4,7-diaza-spiro[2.5]oct-4-yl]-ethyl}-benzonitrile]: the EC50 in assay [1] (setting [9]) is greater than 500 nM; in assay [2] (setting [10]), 100 to 500 nM; in assay [3] (setting [11]), less than 100 nM; in assay [4] (setting [12]), less than 100 nM.
